Data on 27 compounds can be found in patent US7495027B2, “3-aryl-4-hydroxyfuranone compounds and the human and animal health use thereof” (Wyeth, priority 2003, dated 2009).

Values after ≈ are worked out from the molar mass of the structure shown. Read-outs that look alike come from different tables or passages of the source.

The test system of one assay is staphylococci. Put plainly: Minimum inhibitory concentration, microdilution broth method, staphylococci. Format: cell-based. Conditions: Mueller-Hinton broth, 18-22 hours at 35° C.; for MIC: Staphylococcus aureus. In outline:
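Organisms, including methicillin-, penicillin- and/or vancomycin-resistant clinical isolates, tested by NCCLS M7-A5 microdilution. Medium: Mueller-Hinton broth for staphylococci and enterococci, supplemented with 5% lysed horse blood for streptococci.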
In general terms: Broth dilution looks for growth in wells or tubes with falling amounts of substance.

Assay [1] deals with E. coli Enopyruvyl-UPD-N-acetylglucosamine reductase, Mur B (Escherichia coli, UniProt P08373). Briefly: biochemical. The conditions noted are these: (E) E. coli enzyme; for IC50: read-out: MurB IC50 (converted).
The target of assay [2] is E. coli UDP-N-acetylglucosamine enolpyruvoyl transferase, MurA (Escherichia coli, UniProt P0A749). Briefly: biochemical. Conditions: (E) E. coli enzyme. In outline:
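Enzyme in 50 mM Tris/HCl pH 8.0 with 5 mM DTT and 20% glycerol was pre-incubated 10 min at 37° C with test compound in DMSO/water. Tris/BME and assay buffer then started the 1 hr, 37° C reaction, with a baseline 340 nm reading taken at start. Stop solution followed, and colour developed 30 minutes.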

Assay [3] addresses T1, S. aureus Enopyruvyl-UPD-N-acetylglucosamine reductase, Mur B (Staphylococcus aureus, UniProt P61431).
T1 sequence (P61431 1-307): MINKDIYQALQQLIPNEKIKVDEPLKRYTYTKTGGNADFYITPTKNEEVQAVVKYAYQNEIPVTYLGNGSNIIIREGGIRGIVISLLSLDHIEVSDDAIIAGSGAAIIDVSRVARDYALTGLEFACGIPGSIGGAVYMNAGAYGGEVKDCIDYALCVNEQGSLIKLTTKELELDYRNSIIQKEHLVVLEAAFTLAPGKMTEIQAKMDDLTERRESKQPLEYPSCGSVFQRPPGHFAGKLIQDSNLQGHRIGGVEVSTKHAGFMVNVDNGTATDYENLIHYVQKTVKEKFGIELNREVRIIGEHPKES
Briefly: biochemical.

Setting [4] is: S. aureus GC 1131, read-out: MIC S. aureus GC 1131.
Where [5] appears, read: S. aureus GC 4543, read-out: MIC S. aureus GC 4543.
[6] abbreviates: (S) S. aureus enzyme, read-out: MurB IC50 (converted).

Sequence of E. coli UDP-N-acetylglucosamine enolpyruvoyl transferase, MurA (P0A749 whole entry): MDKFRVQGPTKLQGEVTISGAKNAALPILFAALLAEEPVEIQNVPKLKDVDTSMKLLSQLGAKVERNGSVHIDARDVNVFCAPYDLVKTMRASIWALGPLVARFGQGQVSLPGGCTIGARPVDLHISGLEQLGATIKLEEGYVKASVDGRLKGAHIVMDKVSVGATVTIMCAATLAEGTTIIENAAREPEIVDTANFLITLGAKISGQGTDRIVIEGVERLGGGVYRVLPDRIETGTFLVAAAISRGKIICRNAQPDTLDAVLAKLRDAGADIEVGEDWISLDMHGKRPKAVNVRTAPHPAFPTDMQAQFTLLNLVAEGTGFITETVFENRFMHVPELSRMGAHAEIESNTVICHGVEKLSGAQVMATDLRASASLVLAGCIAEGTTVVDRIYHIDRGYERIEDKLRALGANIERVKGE
Sequence of E. coli Enopyruvyl-UPD-N-acetylglucosamine reductase, Mur B (P08373 whole entry): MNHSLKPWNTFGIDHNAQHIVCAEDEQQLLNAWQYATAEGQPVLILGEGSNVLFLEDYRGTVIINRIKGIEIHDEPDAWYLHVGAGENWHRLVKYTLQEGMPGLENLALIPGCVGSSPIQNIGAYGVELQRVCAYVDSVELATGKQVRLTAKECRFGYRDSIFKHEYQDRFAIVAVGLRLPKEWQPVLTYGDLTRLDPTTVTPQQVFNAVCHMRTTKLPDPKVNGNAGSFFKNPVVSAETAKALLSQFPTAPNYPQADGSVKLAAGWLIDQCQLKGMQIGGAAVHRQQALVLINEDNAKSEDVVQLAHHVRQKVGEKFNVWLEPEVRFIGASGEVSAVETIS

For `O=C1O/C(=C\c2ccc(-c3cccc(C(F)(F)F)c3)cc2)C(O)=C1c1cccc(C(F)(F)F)c1`, the “MIC S. aureus GC 1131” value against staphylococci (S. aureus GC 1131) was determined as 4 µg/mL (≈ 8.4 µM). Further, the “MIC S. aureus GC 4543” value in the assay on staphylococci (S. aureus GC 4543) turned out to be 1 µg/mL (≈ 2.1 µM). Moreover, the “MurB IC50” value in assay [1] is 4 (E) μg/mL. For the same compound, the “MurA IC50” value in assay [2] was >25 (E) μg/mL.
For the compound `O=C1O/C(=C\c2ccc(-c3cc(Cl)cc(Cl)c3)cc2)C(O)=C1c1cc(Cl)cc(Cl)c1`, the MIC in the assay with staphylococci (setting [4]) was found to be 4 µg/mL (≈ 8.37 µM); in the assay on staphylococci (setting [5]) it was 0.5 µg/mL (≈ 1.05 µM). In assay [1], the “MurB IC50” value is given as 3 (E) μg/mL. In addition, the “MurA IC50” value in assay [2] is 1 (E) μg/mL.
Take `O=C1OC(=Cc2ccc(-c3ccccc3)cc2)C(O)=C1c1cccc(C(F)(F)F)c1` (mixture of isomers) [Example 11]: the “MIC S. aureus GC 1131” value in the assay with staphylococci (S. aureus GC 1131) worked out at 4 µg/mL. Further, the “MIC S. aureus GC 4543” value in the assay with staphylococci (S. aureus GC 4543) is 2 µg/mL. In assay [1], the “MurB IC50” value was 6 (E) μg/mL. The “MurA IC50” value in assay [2] was 1 (E) μg/mL.
For `Cc1ccc(C=C2OC(=O)C(c3ccc(Cl)cc3)=C2O)s1` (mixture of isomers) [Example 13], the “MIC S. aureus GC 1131” value against staphylococci (S. aureus GC 1131) stood at 64 µg/mL. The “MIC S. aureus GC 4543” value in the assay with staphylococci (S. aureus GC 4543) is above 128 µg/mL. Moreover, the “MurB IC50” value in assay [1] is listed as 12 (E) μg/mL. Also, in assay [2], the “MurA IC50” value is 0.5 (E) μg/mL.
`O=C1O/C(=C\c2ccc(-c3ccccc3)cc2)C(O)=C1c1cccc(C(F)(F)F)c1` [Example 10]: the MIC came to 4 µg/mL (≈ 9.79 µM) with staphylococci (setting [4]) and 2 µg/mL (≈ 4.9 µM) with staphylococci (setting [5]). The IC50 in assay [1] was 14.7 µM; in assay [2] it was 2.45 µM.
In the case of `Cc1ccc(C=C2OC(=O)C(c3ccc(Cl)cc3)=C2O)s1` [Example 14], the “MIC S. aureus GC 1131” value in the assay on staphylococci (S. aureus GC 1131) is above 128 µg/mL. Further, the “MIC S. aureus GC 4543” value in the assay with staphylococci (S. aureus GC 4543) is above 128 µg/mL. The “MurB IC50” value in assay [1] is reported as >25 (E) μg/mL. Also, the “MurA IC50” value in assay [2] is 5 (E) μg/mL.
With `O=C1O/C(=C\C2CCCCC2)C(O)=C1c1ccc(Cl)cc1` [Example 15], the MIC in the assay with staphylococci (setting [4]) and in the assay on staphylococci (setting [5]) was 64 µg/mL (≈ 210 µM) each time. Also, the IC50 in assay [1] and in assay [2] was above 82 µM throughout.
As for `O=C1OC(=CC2CCCCC2)C(O)=C1c1cccc(C(F)(F)F)c1` [Example 16], the “MIC S. aureus GC 1131” value with staphylococci (S. aureus GC 1131) came out at 64 µg/mL (≈ 189 µM). The “MIC S. aureus GC 4543” value against staphylococci (S. aureus GC 4543) is above 128 µg/mL. The “MurB IC50” value in assay [1] is given as >25 (E) μg/mL. In addition, the “MurA IC50” value in assay [2] is given as >25 (E) μg/mL.
As to `O=C1O/C(=C\C2CCCCC2)C(O)=C1c1cccc(C(F)(F)F)c1` [Example 17], the MIC in the assay with staphylococci (setting [4]) is 32 µg/mL (≈ 94.6 µM); in the assay on staphylococci (setting [5]) it was above 128 µg/mL. Further, in assay [1], the IC50 was above 70.9 µM.
Take `O=C1O/C(=C\c2cccc(C(F)(F)F)c2)C(O)=C1c1ccc2ccccc2c1` [Example 42]: the MIC in the assay with staphylococci (setting [4]) and in the assay on staphylococci (setting [5]) was 8 µg/mL (≈ 20.9 µM) throughout. For the same compound, the “MurB IC50” value in assay [1] is 10 (E) μg/mL. In addition, the “MurA IC50” value in assay [2] is 20 (E) μg/mL.
Consider `O=C1O/C(=C\c2ccc(Cl)cc2)C(O)=C1c1ccc2ccccc2c1` [Example 43], for which the MIC in the assay with staphylococci (setting [4]) and in the assay on staphylococci (setting [5]) was 8 µg/mL (≈ 22.9 µM) in each case. Also, the figures for the IC50 in assay [1], in assay [3] (setting [6]) and in assay [2] were 17.2 µM, 14.3 µM and 57.3 µM, respectively.
For the compound `O=C1O/C(=C\c2cccc3ccccc23)C(O)=C1c1cccc2ccccc12` [Example 47], the results for the MIC with staphylococci (setting [4]) and with staphylococci (setting [5]) were 16 µg/mL (≈ 43.9 µM) and 32 µg/mL (≈ 87.8 µM), respectively. Also, the half-maximal inhibitory concentration (IC50) in assay [1] is 63.1 µM; in assay [3] (setting [6]) it was 27.4 µM; in assay [2], above 68.6 µM.
Turning to `O=C1O/C(=C\C2CCCCC2)C(O)=C1c1ccc2ccccc2c1` [Example 51], the MIC with staphylococci (setting [4]) was above 128 µg/mL; with staphylococci (setting [5]) it was 16 µg/mL (≈ 49.9 µM). Further, the IC50 in assay [1] and in assay [2] was above 78 µM in each case.
As to `O=C1O/C(=C\c2ccc3ccccc3c2)C(O)=C1c1ccc2ccccc2c1` [Example 52], the MIC with staphylococci (setting [4]) and in the assay on staphylococci (setting [5]) was 16 µg/mL (≈ 43.9 µM) throughout. The IC50 in assay [1] and in assay [2] was above 68.6 µM throughout.
Consider `O=C1O/C(=C\c2ccc(-c3ccccc3)cc2)C(O)=C1c1ccc(Cl)cc1` [Example 53], for which the MIC in the assay with staphylococci (setting [4]) and in the assay on staphylococci (setting [5]) was 16 µg/mL (≈ 42.7 µM) each time. The IC50 in assay [1] was 16 µM; in assay [2], above 66.7 µM.
For the compound `O=C1O/C(=C\c2ccc3ccccc3c2)C(O)=C1c1ccc(Cl)cc1` [Example 54], the MIC with staphylococci (setting [4]) worked out at 8 µg/mL (≈ 22.9 µM); with staphylococci (setting [5]), 16 µg/mL (≈ 45.9 µM). Besides, the figures for the IC50 in assay [1] and in assay [2] were 22.9 µM and above 71.7 µM, respectively.
The like results for `O=C1O/C(=C\c2ccc3ccccc3c2)C(O)=C1c1cccc2ccccc12` [Example 56] were, in that order, 16 µg/mL (≈ 43.9 µM), 32 µg/mL (≈ 87.8 µM), above 68.6 µM and above 68.6 µM.
`O=C1O/C(=C\c2ccc(-c3ccccc3)cc2)C(O)=C1c1cc(Cl)cc(Cl)c1` [Example 67]: the “MIC S. aureus GC 4543” value in the assay on staphylococci (S. aureus GC 4543) amounted to 0.5 µg/mL (≈ 1.22 µM). Also, the MIC in the assay on staphylococci (setting [4]) was determined as 1 µg/mL (≈ 2.44 µM). Also, the concentration for half-maximal inhibition (IC50) in assay [1] is 2.44 µM; in assay [2], 7.33 µM.
As to `O=C1O/C(=C\c2ccc(-c3ccccc3)cc2)C(O)=C1c1cccc(Cl)c1` [Example 69], the MIC in the assay on staphylococci (setting [4]) was 2 µg/mL (≈ 5.34 µM); in the assay with staphylococci (setting [5]), 1 µg/mL (≈ 2.67 µM). Further, the results for the IC50 in assay [1] and in assay [2] were 13.3 µM and 21.3 µM, respectively.
As to `O=C1O/C(=C\C2CCCCC2)C(O)=C1c1ccc(-c2ccccc2)cc1` [Example 100], the MIC in the assay on staphylococci (setting [4]) and in the assay on staphylococci (setting [5]) was above 128 µg/mL throughout. Further, the IC50 in assay [2] is above 72.2 µM.
On to `O=C1O/C(=C\c2cccnc2)C(O)=C1c1ccc(-c2ccccc2)cc1` [Example 101], for which the MIC in the assay with staphylococci (setting [4]) and in the assay with staphylococci (setting [5]) was above 128 µg/mL in each case. Further, the IC50 in assay [1] was above 73.2 µM; in assay [2] it was 67.4 µM.
As to `Cc1ccc(/C=C2\OC(=O)C(c3ccc(-c4ccccc4)cc3)=C2O)s1` [Example 104], the minimal inhibitory concentration (MIC) in the assay with staphylococci (setting [4]) turned out to be 16 µg/mL (≈ 44.4 µM); with staphylococci (setting [5]), 32 µg/mL (≈ 88.8 µM). For the same compound, the half-maximal inhibitory concentration (IC50) in assay [2] is above 69.4 µM.
As to `O=C1O/C(=C\c2cccc(C(F)(F)F)c2)C(O)=C1c1ccc(-c2ccccc2)c(F)c1` [Example 106], the MIC in the assay with staphylococci (setting [4]) and in the assay on staphylococci (setting [5]) was 2 µg/mL (≈ 4.69 µM) throughout. Besides, the “MurB IC50” value in assay [1] is listed as 12 (E) μg/mL. Also, in assay [2], the IC50 is 21.1 µM.
Take `O=C1O/C(=C\c2cccc(-c3cccc(Cl)c3)c2)C(O)=C1c1cccc(Cl)c1` [Example 134]: the MIC in the assay on staphylococci (setting [4]) is above 128 µg/mL; in the assay with staphylococci (setting [5]), 1 µg/mL (≈ 2.44 µM). Moreover, the “MurB IC50” value in assay [1] was found to be 4 µg/mL. In addition, the IC50 in assay [3] (setting [6]) was 4.89 µM. Also, the “MurA IC50” value in assay [2] was 5 (E) μg/mL.
With `O=C1O/C(=C\c2ccc(C(F)(F)F)cc2)C(O)=C1c1ccc(-c2ccccc2)cc1` [R=H, R1=4-(biphenyl), R2=4-CF3—C6H4], the MIC in the assay with staphylococci (setting [4]) and in the assay with staphylococci (setting [5]) was 8 µg/mL (≈ 19.6 µM) throughout. Also, the half-inhibitory concentration (IC50) in assay [1] was 14.7 µM; in assay [2], 46.5 µM.
For `O=C1O/C(=C\c2ccc(-c3ccc(Cl)cc3)cc2)C(O)=C1c1ccc(Cl)cc1` [R=H, R1=4-Cl—C6H4, R2=4-(4′-Cl-biphenyl)], the results for the MIC with staphylococci (setting [4]) and with staphylococci (setting [5]) were 16 µg/mL (≈ 39.1 µM) and 8 µg/mL (≈ 19.5 µM), respectively. In addition, the IC50 was 7.33 µM in assay [1] and 14.7 µM in assay [2].
In the case of `O=C1O/C(=C\c2cccc3ccccc23)C(O)=C1c1ccc(-c2ccccc2)cc1` [R=H, R1=4-biphenyl, R2=1-naphthyl], the minimal inhibitory concentration (MIC) in the assay on staphylococci (setting [4]) was 8 µg/mL (≈ 20.5 µM); in the assay on staphylococci (setting [5]), 4 µg/mL (≈ 10.2 µM). For the same compound, the IC50 in assay [1] was 12.8 µM; in assay [3] it was 25.6 µM; in assay [2] it was 58.9 µM.

By MIC is commonly meant the least concentration at which growth counts as inhibited. Broadly, the IC50 is the concentration that inhibits the measured activity by half.
